Structures are written as SMILES.

One experiment concerns the target T1, human CPT1A (Homo sapiens, UniProt P50416).
T1 construct: made in house; host or cells: Saccharomyces cerevisiae (pESC-trp) or cultured mammalian cells (pCDNA3.1); mitochondrial extract
T1 sequence (P50416 1-773): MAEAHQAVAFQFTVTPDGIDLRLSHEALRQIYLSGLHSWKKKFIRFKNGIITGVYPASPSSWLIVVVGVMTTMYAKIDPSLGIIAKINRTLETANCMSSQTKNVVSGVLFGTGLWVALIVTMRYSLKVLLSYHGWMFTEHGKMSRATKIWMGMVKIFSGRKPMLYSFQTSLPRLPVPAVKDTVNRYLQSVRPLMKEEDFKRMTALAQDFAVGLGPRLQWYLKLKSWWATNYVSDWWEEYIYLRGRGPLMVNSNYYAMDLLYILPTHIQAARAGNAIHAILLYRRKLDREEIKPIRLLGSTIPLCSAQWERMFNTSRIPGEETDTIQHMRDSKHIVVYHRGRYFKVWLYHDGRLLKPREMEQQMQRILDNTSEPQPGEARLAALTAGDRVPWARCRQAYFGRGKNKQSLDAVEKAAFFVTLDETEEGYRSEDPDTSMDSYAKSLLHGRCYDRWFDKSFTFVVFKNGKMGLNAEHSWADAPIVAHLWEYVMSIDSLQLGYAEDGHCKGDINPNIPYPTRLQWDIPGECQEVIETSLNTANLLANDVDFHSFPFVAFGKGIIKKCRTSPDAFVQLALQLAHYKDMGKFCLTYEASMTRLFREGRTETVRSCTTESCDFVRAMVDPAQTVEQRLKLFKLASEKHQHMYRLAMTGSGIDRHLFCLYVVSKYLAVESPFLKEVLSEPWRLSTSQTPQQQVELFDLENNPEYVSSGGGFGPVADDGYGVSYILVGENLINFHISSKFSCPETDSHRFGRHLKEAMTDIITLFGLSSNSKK
In words: Human CPT1A LC/MS assay. In kind it is biochemical. Conditions: dose response assay, n=17. In short, it runs like this: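 Mitochondrial extracts (1.6 μg protein) expressing human CPT1A, preincubated 10 min with compound in 20% DMSO, then reacted 10 min at room temperature with 20 μM palmitoyl-CoA, 50 μM L-carnitine (pH 7.5). Palmitoyl carnitine was quantified by LC/MS against a myristoyl carnitine standard; 16-point, 2-fold titrations gave dose response.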
Usually IC50 stands for the concentration that gives 50% inhibition. Consider `C[N+](C)(C)C[C@H](N)CC(=O)[O-]` [L-aminocarnitine, (R)-3-amino-4-(trimethylammonio)butanoate, reference compound], for which the 50% inhibitory concentration (IC50) came to 7 ± 2.5 µM.

Still in this experiment, the particulars now being: human CPT1A LC/MS assay, dose response format.
In turn, `Cc1cccc(CCc2ccc(S(=O)(=O)N[C@H](CC(=O)O)C[N+](C)(C)C)s2)c1` [Example S77, (R)-3-carboxy-N,N,N-trimethyl-2-(5-(3-methylphenethyl)thiophene-2-sulfonamido)propan-1-aminium 2,2,2-trifluoroacetate] yielded a concentration for half-maximal inhibition (IC50) of 10 to 100 µM. As to `C[N+](C)(C)C[C@@H](CC(=O)O)NC(=O)c1ccc(C#Cc2ccccc2)cc1` [Example S62, (R)-3-(4-(phenylethynyl)benzamido)-4-(trimethylammonio)butanoate 2,2,2-trifluoroacetate], the IC50 was 10 to 100 µM. Same read-out and setting: the same measure for `CCCCCCCCc1ccc(N(C)S(=O)(=O)N[C@H](CC(=O)O)C[N+](C)(C)C)cc1` [Example S93, (R)-3-(N-methyl-N-(4-octylphenyl)sulfamoylamino)-4-(trimethylammonio)-butanoate]: 10 to 100 µM. Same read-out and setting: the same measure for `C[N+](C)(C)C[C@@H](CC(=O)O)NC(=O)Nc1ccccc1I` [Example S99, (R)-3-carboxy-2-(3-(2-iodophenyl)ureido)-N,N,N-trimethylpropan-1-aminium]: above 2500 µM; for `Cc1ccoc1C(=O)Nc1ccc(C(=O)N[C@H](CC(=O)[O-])C[N+](C)(C)C)cc1` [Example S5, (R)-3-(4-(3-methylfuran-2-carboxamido)benzamido)-4-(trimethylammonio)-butanoate]: 100 to 1000 µM; for `CCOc1ccc(OCc2ccc(C(=O)N[C@H](CC(=O)[O-])C[N+](C)(C)C)o2)cc1` [Example S68, (R)-3-(5-((4-ethoxyphenoxy)methyl)furan-2-carboxamido)-4-(trimethyl-ammonio)butanoate]: at most 1 µM. `CCOc1ccc(S(=O)(=O)N[C@H](CC(=O)O)C[N+](C)(C)C)cc1NC(=O)N1CCOCC1` [Example S74, (R)-3-carboxy-2-(4-ethoxy-3-(morpholine-4-carboxamido)phenyl-sulfonamido)-N,N,N-trimethylpropan-1-aminium 2,2,2-trifluoroacetate] came in with an IC50 above 2500 µM. `C[N+](C)(C)C[C@@H](CC(=O)O)NC(=O)Nc1ccc(C(=O)c2ccccc2)cc1` [Example S16, (R)-2-(3-(4-Benzoylphenyl)ureido)-3-carboxy-N,N,N-trimethylpropan-1-aminium acetate] came in with an IC50 of 10 to 100 µM.

The molecule `CCCOc1ccc(C(=O)N[C@H](CC(=O)[O-])C[N+](C)(C)C)cc1` [Example S1, (R)-3-(4-propoxybenzamido)-4-(trimethylammonio)butanoate] came in with a 50% inhibitory concentration (IC50) of 100 to 1000 µM. Still for that read-out and setting: to `C[N+](C)(C)C[C@@H](CC(=O)O)NC(=O)Nc1ccc(F)c(F)c1F` [Example S14, (R)-3-Carboxy-N,N,N-trimethyl-2-(3-(2,3,4-trifluorophenyl)ureido)-propan-1-aminium acetate] belongs 1000 to 2500 µM. In turn, `C[N+](C)(C)C[C@@H](CC(=O)[O-])NC(=O)Nc1cccc(Oc2ccccc2)c1` [Example S38, (R)-3-(3-(3-Phenoxyphenyl)ureido)-4-(trimethylammonio)butanoate] returned an IC50 of 100 to 1000 µM. Still for that read-out and setting: the same measure for `CCCCCc1ccc(NC(=O)N[C@H](CC(=O)[O-])C[N+](C)(C)C)cc1` [Example S15, (R)-3-Carboxy-N,N,N-trimethyl-2-(3-(4-pentylphenyl)ureido)propan-1-aminium]: 10 to 100 µM; for `C[N+](C)(C)C[C@@H](CC(=O)O)NS(=O)(=O)c1ccc(-c2ccno2)s1` [Example S22, (R)-3-carboxy-2-(5-(isoxazol-5-yl)thiophene-2-sulfonamido)-N,N,N-trimethylpropan-1-aminium 2,2,2-trifluoroacetate]: 1000 to 2500 µM. On the same count and under the same terms, to `C[N+](C)(C)C[C@@H](CC(=O)O)NC(=O)c1ccc(CCc2ccsc2)s1` [Example S98, (R)-3-carboxy-N,N,N-trimethyl-2-(5-(2-(thiophen-3-yl)ethyl)thiophene-2-carboxamido)propan-1-aminium 2,2,2-trifluoroacetate] belongs at most 1 µM; to `C[N+](C)(C)C[C@@H](CC(=O)[O-])NC(=O)c1ccc(CSc2ccc(Cl)cc2)o1` [Example S71, (R)-3-(5-((4-chlorophenylthio)methyl)furan-2-carboxamido)-4-(trimethyl-ammonio)butanoate], at most 1 µM. Same read-out and setting: to `CCCCCc1ccc(S(=O)(=O)N[C@H](CC(=O)O)C[N+](C)(C)C)cc1` [Example S23, (R)-3-(4-pentylphenylsulfonamido)-4-(trimethylammonio)butanoate 2,2,2-trifluoroacetate] belongs 1 to 10 µM; to `Cc1cc(COc2ccccc2)oc1C(=O)N[C@H](CC(=O)[O-])C[N+](C)(C)C` [Example S65, (R)-3-(3-methyl-5-(phenoxymethyl)furan-2-carboxamido)-4-(trimethyl-ammonio)butanoate], 100 to 1000 µM; to `C[N+](C)(C)C[C@@H](CC(=O)O)NC(=O)Nc1ccc(-c2ccccc2)cc1` [Example S17, (R)-2-(3-Biphenyl-4-ylureido)-3-carboxy-N,N,N-trimethylpropan-1-aminium acetate], 100 to 1000 µM.

For `C[N+](C)(C)C[C@@H](CC(=O)[O-])NC(=O)c1cccc(C#Cc2ccccc2)c1` [Example S48, (R)-3-(3-(phenylethynyl)benzamido)-4-(trimethylammonio)butanoate], the IC50 lay in the range of 100 to 1000 µM. Still for that read-out and setting: the same measure for `CCCCCCCCOc1ccc(NS(=O)(=O)N[C@H](CC(=O)[O-])C[N+](C)(C)C)cc1` [Example S103, (R)-3-(N-(4-(octyloxy)phenyl)sulfamoylamino)-4-(trimethylammonio) butanoate]: at most 1 µM. Same read-out and setting: the same measure for `CCCCCCC#Cc1cccc(N(C)S(=O)(=O)N[C@H](CC(=O)[O-])C[N+](C)(C)C)c1` [Example S112, (R)-3-(N—(N-methyl-N-(3-(oct-1-ynyl)phenyl)sulfamoyl)amino)-4-(trimethyl-ammonio)butanoate]: 10 to 100 µM; for `CCCCCc1ccc(CCc2ccc(NS(=O)(=O)N[C@H](CC(=O)[O-])C[N+](C)(C)C)cc2)cc1` [Example S108, (R)-3-(N-(4-(4-pentylphenethyl)phenyl)sulfamoylamino)-4-(trimethyl-ammonio)butanoate]: at most 1 µM; for `C[N+](C)(C)C[C@@H](CC(=O)[O-])NC(=O)Nc1ccc(-c2cccs2)cc1` [Example S11, (R)-3-(3-(4-(thiophen-2-yl)phenyl)ureido)-4-(trimethylammonio)butanoate]: 100 to 1000 µM.

Take `C[N+](C)(C)C[C@@H](CC(=O)[O-])NC(=O)c1ccc(Oc2ccccc2)nc1` [Example S50, (R)-3-(6-phenoxynicotinamido)-4-(trimethylammonio)butanoate]: the half-maximal inhibitory concentration (IC50) fell in the range of 100 to 1000 µM.

The molecule `C[N+](C)(C)C[C@@H](CC(=O)[O-])NC(=O)Nc1cccc(Cc2ccccc2)c1` [Example S86, (R)-3-(3-(3-benzylphenyl)ureido)-4-(trimethylammonio)butanoate] yielded an IC50 of 100 to 1000 µM.

In turn, `CCCCCCCCc1cccc(NS(=O)(=O)N[C@H](CC(=O)[O-])C[N+](C)(C)C)c1` [Example S111, (R)-3-(N-(3-octylphenyl)sulfamoylamino)-4-(trimethylammonio)-butanoate] yielded a 50% inhibitory concentration (IC50) of at most 1 µM. Same read-out and setting: to `CCCCCCCCOC(=O)Nc1ccc(S(=O)(=O)N[C@H](CC(=O)O)C[N+](C)(C)C)cc1` [Example S73, (R)-3-carboxy-N,N,N-trimethyl-2-(4-(octyloxycarbonylamino)phenyl-sulfonamido)propan-1-aminium 2,2,2-trifluoroacetate] belongs 10 to 100 µM; to `C[N+](C)(C)C[C@@H](CC(=O)O)NC(=O)Nc1ccc(OCc2ccccc2)cc1` [Example S12, (R)-3-(3-(4-(Benzyloxy)phenyl)ureido)-4-(trimethylammonio)butanoate acetate], 100 to 1000 µM; to `C[N+](C)(C)C[C@@H](CC(=O)[O-])NC(=O)Nc1ccc(Oc2ccccc2)cc1` [Example S8, (R)-3-(3-(4-phenoxyphenyl)ureido)-4-(trimethylammonio)butanoate], 10 to 100 µM.

With `C[N+](C)(C)C[C@@H](CC(=O)O)NS(=O)(=O)c1ccc(CCc2ccccc2)s1` [Example S79, (R)-3-carboxy-N,N,N-trimethyl-2-(5-phenethylthiophene-2-sulfonamido)-propan-1-aminium 2,2,2-trifluoroacetate], the IC50 is 10 to 100 µM. Turning to `CCCCc1ccc(NC(=O)N[C@H](CC(=O)[O-])C[N+](C)(C)C)c(C)c1` [Example S13, (R)-2-(3-(4-Butyl-2-methylphenyl)ureido)-3-carboxy-N,N,N-trimethylpropan-1-aminium], the IC50 lay within 1000 to 2500 µM.
